# Literature values as cited in publication PMC11702666, “The anti-COVID-19 drug Paxlovid crosses biological barriers of the placenta and brain in rats” (npj Viruses, 2024).
# Entries after “also recorded” stand apart in the source; their conditions may differ. Like-named read-outs stand apart in the source and are kept apart here.
# What was measured:
# CYP3A = settings: cited from earlier work; for AUC0 to infinity: midazolam 2 mg p.o.
# [1] = PBPK model LeiCNS-PK3.0; recommended dosing regimen; cited from earlier work
# [2] = cited from earlier work
# [3] = male rats; cited from earlier work
# [4] = oral; cited from earlier work
smiles,measurement,setting,value
Cc1ncc2n1-c1ccc(Cl)cc1C(c1ccccc1F)=NC2 [midazolam],increase of apparent CYP3A activity during pregnancy,CYP3A; for midazolam,35-38%
same,AUC0 to infinity,CYP3A; postpartum,17.9 ± 6.0 ng·h/mL
same,increase in CYP3A activity,"CYP3A; pregnancy vs postpartum, from midazolam AUC",1.88 fold
same,AUC0 to infinity,"CYP3A; pregnancy, healthy pregnant women",9.5 ± 4.3 ng·h/mL
CC(C)C(=O)OC[C@H]1O[C@@H](n2ccc(NO)nc2=O)[C@H](O)[C@@H]1O [molnupiravir],predicted brain penetration / effective concentrations against SARS-CoV-2,[1],unable to penetrate the BBB
same,placental barrier transfer,[2]; pregnant rats,traverse the placental barrier; also recorded: transfer to the placental barrier
same,blood–brain barrier transfer,[3],exhibit the potential to cross the blood–brain barrier
CCC(CC)COC(=O)[C@H](C)N[P@](=O)(OC[C@H]1O[C@@](C#N)(c2ccc3c(N)ncnn23)[C@H](O)[C@@H]1O)Oc1ccccc1 [remdesivir],predicted brain penetration / effective concentrations against SARS-CoV-2,[1],unable to penetrate the BBB
same,placental barrier transfer,[2]; experimental animal model,transfer to the placental barrier
CC(C)c1nc(CN(C)C(=O)N[C@H](C(=O)N[C@@H](Cc2ccccc2)C[C@H](O)[C@H](Cc2ccccc2)NC(=O)OCc2cncs2)C(C)C)cs1 [ritonavir],bioavailability,[4],~80%
